Laboratory results reported in US20240123022A1, “A STABLE ANTI-ANGIOGENIC AND ANTI-INFLAMMATORY PHARMACEUTICAL FORMULATION AND PHARMACEUTICAL COMBINATION FOR TREATMENT AND PREVENTION OF PSORIASIS” (priority 2021, published 2024).

How the values were obtained:
[1] = Stability of IS217 API, long-term condition −20 ± 5° C.; type: physicochemical; conditions: for Appearance, change / Assessment of container closure system, change / Clarity of solution, change / Color of Solution, change / Color, change / Odor, change: long-term −20 ± 5° C.
Method: The purpose of stability testing is to provide evidence on how the quality of a drug substance or drug product varies with time under the influence of a variety of environmental factors such as temperature, humidity, etc. and to establish a re-test period for the drug substance or a shelf life for the drug product and recommended storage conditions. The study was conducted according to the WHO and Schedule-Y guidelines.
The drug substance is a lyophilized white fluffy powder, and it was filled at sterile condition in glass injection vial which has airlock-rubber capping. This container closure system is the same as or simulates the packaging proposed for storage and distribution.
This study has included testing of those attributes of the drug substance that are susceptible to change during storage and are likely to influence quality, safety and/or efficacy. The testing was covered, as appropriate, the physical and chemical attributes.
The following test attributes have been selected according to above said guidelines. • Appearance; odour; colour; colour of solution (when the drug substance is soluble in solvent); clarity of solution; degradation and assessment of container closure system
Testing frequency for long-term studies have been designed as per schedule Y. […]
The studies were conducted under appropriate storage conditions (with appropriate tolerances) that test drug substance thermal stability and its sensitivity to moisture. The drug substance is intended to store for 24 months. Accordingly, long term stability studies were done for 24 months. The details of the storage conditions have been furnished hereunder.
23.4: Long term stability study results Name of the Product: IS217; Batch size: 200 m·mol; Storage Conditions: −20±5° C.

[2] = tested on: TPA induced ear inflammation model in C57BL/6 mice; type: in vivo
Description: The experimental procedure and doses and route of administration are same as IMQ model.

EA.hy926 cells = experiment: Induction of DNA fragmentation in human endothelial cell line; type: cell-based
Method: EA.hy926 cells, a well reported in vitro model to study the anti-angiogenic potential used for assessing apoptotic effect of IS217 through induction of DNA fragmentation. Cell conditions were maintained using DMEM, about 10% FBS, CO2 incubator and serum starved using 1% FBS. The starved cells were treated with IS217 in the concentrations of 100 μg/ml, 500 μg/ml, 1000 μg/ml, 2000 μg/ml, 5000 μg/ml and incubated for about 48 hours. Anthralin in concentrations of 0.1 μM and 0.5 μM was used as positive control.
The fragmented DNA after lysis was precipitated using PEG/NaCl solution and incubated with 0.2 μg/ml of Hoechst 33258 dye, fluorescence was read at 360 ex/460 em using Biotek synergy HT multimode reader.

[3] = tested on: human endothelial cell line (EA.hy926); conditions: EA.hy926, 1-5000 μg/ml, 72 h
Method: Here MTT assay and BioTek Synergy HT multimode reader were used to determine the cell viability in test cells. […] Once within about 72 hours of incubation, re-treatment was done for test items at every 24 hours in 3 additions. 150 μl of DMSO was added to aspirated supernatant and observed at 540 nm using BioTek Synergy HT plate reader.

[4] = tested on: Imiquimod (IMQ) induced psoriasis model using Balb/c mice; experiment: IMQ induced psoriasis model, routes of administration (SC, IM, IV, IP); type: in vivo; conditions: for TNF-α reduced to / reduction in IL-23: ear homogenate
Method: The study was conducted in healthy, adult female Balb/c mice. All the animals were acclimatized to laboratory condition prior to experiment initiation.
Animals were randomized into 10 groups containing 6 animals each group, based on their body weight. Approximately 63 mg of IMQ cream (5%) (containing 3.125 mg of IMQ) was weighed and applied topically each on dorsal area (shaved back) and right ear of mice for 8 days in group 3-10. Groups 1 and 2 were served as controls and were treated with appropriate vehicle. Later groups 1 and 2 were merged for better calculation purpose.
Body weight, ear thickness and dorsal skin thickness was measured daily using digital caliper. Erythema index was recorded by mexameter and clinical scoring was also done daily for dorsal psoriatic area.
On day 9, animals were anesthetized for blood collection followed by euthanasia by C02 asphyxiation as per in-house approved standard protocol.
About 4 mm ear punch biopsy was collected, weighed and fixed in about 10% neutral buffer formalin for histopathological analysis (via H and E staining). Remaining ear was excised and stored at about −80° C. for inflammatory cytokine analysis. Dorsal skin was also collected, and half was kept in formalin. Spleen was also collected and weighed and kept in formalin.
In this study three different routes i.e., SC, IM and IV at different doses ranging from 0.3, 0.6 and 1.2 mg/kg were used to see dose response curve, the results were as follows: […]

Substance: H-FAKKFAKKFK-OH [IS217, H-Phe-Ala-Lys-Lys-Phe-Ala-Lys-Lys-Phe-Lys-OH]
- stability of IS217 API ([1]; 6 months at long term stability condition −20 ± 5° C.): stable
- Appearance, change ([1]; 1st month): No change
- Assessment of container closure system, change ([1]; 1st month): No change
- Clarity of solution, change ([1]; 1st month): No change
- Color of Solution, change ([1]; 1st month): No change
- Color, change ([1]; 1st month): No change
- Odor, change ([1]; 1st month): No change
- Appearance, change ([1]; 2nd month): No change
- Assessment of container closure system, change ([1]; 2nd month): No change
- Clarity of solution, change ([1]; 2nd month): No change
- Color of Solution, change ([1]; 2nd month): No change
- Color, change ([1]; 2nd month): No change
- Odor, change ([1]; 2nd month): No change
- Appearance, change ([1]; 3rd month): No change
- Assessment of container closure system, change ([1]; 3rd month): No change
- Clarity of solution, change ([1]; 3rd month): No change
- Color of Solution, change ([1]; 3rd month): No change
- Color, change ([1]; 3rd month): No change
- Odor, change ([1]; 3rd month): No change
- Appearance, change ([1]; 6th month): No change
- Assessment of container closure system, change ([1]; 6th month): No change
- Clarity of solution, change ([1]; 6th month): No change
- Color of Solution, change ([1]; 6th month): No change
- Color, change ([1]; 6th month): No change
- Odor, change ([1]; 6th month): No change
- API calculated on the anhydrous basis (OAB) ([1]; −20 ± 5° C., 1 M): 98.98%
- Related substances (By HPLC), Any Max. Impurity ([1]; −20 ± 5° C., 1 M): 0.64%
- Related substances (By HPLC), Total Impurity ([1]; −20 ± 5° C., 1 M): 0.85%
- Solubility (Soluble in water) ([1]; −20 ± 5° C., 1 M): Complies
- Water Content (By Karl Fischer-Titrator) ([1]; −20 ± 5° C., 1 M): 4.89% w/w
- API calculated on the anhydrous basis (OAB) ([1]; −20 ± 5° C., 2 M): 99.14%
- Related substances (By HPLC), Any Max. Impurity ([1]; −20 ± 5° C., 2 M): 0.64%
- Related substances (By HPLC), Total Impurity ([1]; −20 ± 5° C., 2 M): 0.85%
- Solubility (Soluble in water) ([1]; −20 ± 5° C., 2 M): Complies
- Water Content (By Karl Fischer-Titrator) ([1]; −20 ± 5° C., 2 M): 4.83% w/w
- API calculated on the anhydrous basis (OAB) ([1]; −20 ± 5° C., 3 M): 99.15%
- Related substances (By HPLC), Any Max. Impurity ([1]; −20 ± 5° C., 3 M): 0.72%
- Related substances (By HPLC), Total Impurity ([1]; −20 ± 5° C., 3 M): 0.85%
- Solubility (Soluble in water) ([1]; −20 ± 5° C., 3 M): Complies
- Water Content (By Karl Fischer-Titrator) ([1]; −20 ± 5° C., 3 M): 4.52% w/w
- API calculated on the anhydrous basis (OAB) ([1]; −20 ± 5° C., 6 M): 99.40%
- Related substances (By HPLC), Any Max. Impurity ([1]; −20 ± 5° C., 6 M): 0.35%
- Related substances (By HPLC), Total Impurity ([1]; −20 ± 5° C., 6 M): 0.61%
- Solubility (Soluble in water) ([1]; −20 ± 5° C., 6 M): Complies
- Water Content (By Karl Fischer-Titrator) ([1]; −20 ± 5° C., 6 M): 4.99% w/w
- API calculated on the anhydrous basis (OAB) ([1]; −20 ± 5° C., Initial): 99.28%
- Related substances (By HPLC), Any Max. Impurity ([1]; −20 ± 5° C., Initial): 0.60%
- Related substances (By HPLC), Total Impurity ([1]; −20 ± 5° C., Initial): 0.72%
- Remark ([1]; −20 ± 5° C., Initial): Complies
- Solubility (Soluble in water) ([1]; −20 ± 5° C., Initial): Complies
- Water Content (By Karl Fischer-Titrator) ([1]; −20 ± 5° C., Initial): 4.66% w/w
- reduction in IL-23 levels in ear tissue homogenate ([2]; 0.60 mg/kg): 42.12%
- maximum ear thickness inhibition ([2]; 1.2 mg/kg): 80.36%
- MPO levels ([2]; 1.2 mg/kg SC, conclusion of in vivo studies, model not stated): significant reduction
- absolute ear thickness ([2]; 1.2 mg/kg-4.8 mg/kg): significant reduction
- ear thickness (absolute, histopathology, ear punch biopsy) ([2]; IS217 (all doses) < MTX, p < 0.001): Decreased ear
- Ear homogenate ELISA TNF-α, IL-23, IL-6, MPO ([2]; p < 0.01): MPO reduction
- induction of DNA fragmentation (EA.hy926 cells; EA.hy926, 1000 μg/ml, 48 h): 24.53%
- percentage of induction of DNA fragmentation (EA.hy926 cells; EA.hy926, 2000 μg/ml and 5000 μg/ml): significant decrease
- percentage inhibition of FBS induced proliferation of endothelial cells [3]: effective upto 2000 μg/ml only
- ear biopsy weight ([4]; 0.3 mg/kg SC, day 9, vs other doses and routes): maximum effect
- hyperkeratosis, edema, inflammatory cell infiltration and ear thickness in histopathology examination of ear ([4]; 0.3 mg/kg SC, p < 0.01): reduced
- TNF-α reduced to ([4]; 0.6 mg/kg): 13.94%
- reduction in IL-23 ([4]; 0.6 mg/kg): 49.68%
- TNF-α level in ear tissue homogenate ([4]; 1.2 mg/kg SC): partially reduced
- TNF-α and IL-23 levels, rete peg proliferation in histopathology examination of ear ([4]; 1.2 mg/kg SC, p < 0.01): dose lowered
- absolute ear thickness reduction, maximum inhibition ([4]; 1.2 mg/kg dose): 80.36%
- TNF-α reduced to ([4]; 1.2 mg/kg): 24.25%
- reduction in IL-23 ([4]; 1.2 mg/kg): 59.85%
- reduction of IL-23 levels ([4]; 0.3-1.2 mg/kg SC, by all above observations): prominent dose dependent results
- percentage inhibition of ear inflammation, maximum inhibitory activity ([4]; IM route): 59.12%
- body weight ([4]; IS217 SC, IM, IV, IP, 8 days): No significant change
- IL-17 in ear tissue homogenate ([4]; IV treatment): maximum inhibition
- spleen weight reduction ([4]; IV treatment group, not statistically significant): maximum reduction
- spleen weight reduction ([4]; SC treatment groups): No effect
- IMQ induced hyperkeratosis, edema, Rete Peg proliferation, inflammatory cell infiltration (ear histopathology) ([4]; SC, low dose of 0.3 mg/kg): maximum reduction
- cumulative psoriatic score of dorsal area ([4]; any treatment group): No significant reduction
- erythema index ([4]; any treatment group): No significant reduction
- percentage inhibition of ear inflammation, maximum inhibitory response ([4]; low dose, from day 6): 32.08%
- IL-17A and spleen weight ([4]; mouse, in vivo): no trend
